Reference: PubChem BioAssay AID330 (DTP/NCI, 2004)
Several values for one entry are separate records, joined by “and”; a condition that tells them apart may be missing. Equal entries are not always repeated. Inconclusive results and toxic doses are left out.

System: P388 leukemia ip, CD2F1 mice, survival T/C
Assay: NCI In Vivo Anticancer Drug Screen. Data for tumor model P388 Leukemia (intraperitoneal) in CD2F1 (CDF1) mice
Details: endpoint: median survival time, higher = longer survival
Method in brief: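 Mice carrying the transplanted tumor received test compound or vehicle. Survival was recorded in each group, and the value is the treated-group measurement divided by that of the vehicle-treated control group.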

[1] = dose: 100.0 mg/kg/injection, schedule: Q04DX003 (ip), vehicle: saline with Tween-80
[2] = dose: 200.0 mg/kg/injection, schedule: Q04DX003 (ip), vehicle: saline with Tween-80
[3] = dose: 50.0 mg/kg/injection, schedule: Q01DX005 (ip), vehicle: saline
[4] = dose: 50.0 mg/kg/injection, schedule: Q01DX005 (ip), vehicle: saline with Tween-80
[5] = dose: 100.0 mg/kg/injection, schedule: Q01DX005 (ip), vehicle: saline with Tween-80

Cc1c(Cc2ccccc2)[n+](=O)c2ccccc2n1[O-]
T/C (dose: 50.0 mg/kg/injection, schedule: Q01DX005 (ip), vehicle: Klucel (hydroxypropylcellulose) (HPC)): 92 % of control | T/C (dose: 100.0 mg/kg/injection, schedule: Q01DX005 (ip), vehicle: Klucel (hydroxypropylcellulose) (HPC)): 95 % of control | T/C (dose: 100.0 mg/kg/injection, schedule: Q04DX003 (ip), vehicle: Klucel (hydroxypropylcellulose) (HPC)): 100 % of control | T/C [1]: 101 % of control | T/C (dose: 200.0 mg/kg/injection, schedule: Q01DX005 (ip), vehicle: Klucel (hydroxypropylcellulose) (HPC)): 99 % of control | T/C (dose: 200.0 mg/kg/injection, schedule: Q04DX003 (ip), vehicle: Klucel (hydroxypropylcellulose) (HPC)): 98 % of control | T/C [2]: 110 % of control | T/C (dose: 400.0 mg/kg/injection, schedule: Q01DX005 (ip), vehicle: Klucel (hydroxypropylcellulose) (HPC)): 94 % of control | T/C (dose: 400.0 mg/kg/injection, schedule: Q04DX003 (ip), vehicle: Klucel (hydroxypropylcellulose) (HPC)): 104 % of control | T/C (dose: 400.0 mg/kg/injection, schedule: Q04DX003 (ip), vehicle: saline with Tween-80): 118 % of control

CCO/C=C1\SC(=S)N(c2ccccc2C)C1=O
T/C (dose: 2.5 mg/kg/injection, schedule: Q03HX024 (ip), vehicle: saline with Tween-80): 105 % of control | T/C (dose: 5.0 mg/kg/injection, schedule: Q03HX024 (ip), vehicle: saline with Tween-80): 107 % of control | T/C (dose: 10.0 mg/kg/injection, schedule: Q03HX024 (ip), vehicle: saline with Tween-80): 117 % of control | T/C (dose: 14.6 mg/kg/injection, schedule: Q01DX009 (ip), vehicle: saline with Tween-80): 105 % of control | T/C (dose: 22.0 mg/kg/injection, schedule: Q01DX009 (ip), vehicle: saline with Tween-80): 105 % of control | T/C (dose: 100.0 mg/kg/injection, schedule: Q01DX009 (ip), vehicle: saline with Tween-80): 160 % of control | T/C [1]: 116 % of control | T/C [2]: 120 % of control

CN(C)CCNCCN
T/C [3]: 96 % of control | T/C (dose: 100.0 mg/kg/injection, schedule: Q01DX005 (ip), vehicle: saline): 99 % of control

CCN(CC)CCN(Cc1ccccc1)C(=O)C1c2ccccc2Oc2ccccc21
T/C [4]: 102 % of control | T/C [5]: 105 % of control

Cc1cccc(/C=C/c2csnn2)n1
T/C (dose: 60.0 mg/kg/injection, schedule: Q01DX005 (ip), vehicle: saline with Tween-80): 105 % of control | T/C (dose: 120.0 mg/kg/injection, schedule: Q01DX005 (ip), vehicle: saline with Tween-80): 104 % of control | T/C (dose: 240.0 mg/kg/injection, schedule: Q01DX005 (ip), vehicle: saline with Tween-80): 96 % of control

CC[n+]1c(C)sc2ccccc21
T/C (dose: 25.0 mg/kg/injection, schedule: Q01DX005 (ip), vehicle: saline): 91 % of control | T/C [3]: 94 % of control

CC(C)(C)c1cc(C(C)(C)O)c2c(c1)C(C)(C)OS2(C)Cl (stereo not given)
T/C (dose: 50.0 mg/kg/injection, schedule: Q04DX003 (ip), vehicle: saline with Tween-80): 104 % of control

CN1C=CC(C(O)(c2ccccc2)c2ccccc2)CC1 (stereo not given)
T/C [4]: 99 % of control | T/C [5]: 97 % of control | T/C (dose: 200.0 mg/kg/injection, schedule: Q01DX005 (ip), vehicle: saline with Tween-80): 100 % of control

O=C(O)COc1ccc(-c2ccc(Br)cc2)cc1
T/C (dose: 12.5 mg/kg/injection, schedule: Q01DX009 (ip), vehicle: saline with Tween-80): 91 % of control | T/C (dose: 25.0 mg/kg/injection, schedule: Q01DX009 (ip), vehicle: saline with Tween-80): 97 % of control | T/C (dose: 50.0 mg/kg/injection, schedule: Q01DX009 (ip), vehicle: saline with Tween-80): 103 % of control

C[N+](C)(C)c1ccc(Cc2ccc([N+](C)(C)C)cc2)cc1
T/C (dose: 6.3 micrograms/kg/injection, schedule: Q04DX002 (ip), vehicle: saline): 107 % of control | T/C (dose: 12.5 micrograms/kg/injection, schedule: Q04DX002 (ip), vehicle: saline): 111 % of control | T/C (dose: 25.0 micrograms/kg/injection, schedule: Q04DX002 (ip), vehicle: saline): 103 % of control

Nc1ccc2cc(S(=O)(=O)O)cc(O)c2c1N=Nc1ccc(NC(=O)c2ccc(C(=O)Nc3ccc(N=Nc4c(N)ccc5cc(S(=O)(=O)O)cc(O)c45)c(S(=O)(=O)O)c3)cc2)cc1S(=O)(=O)O
T/C (dose: 12.5 mg/kg/injection, schedule: Q01DX005 (ip), vehicle: saline with Tween-80): 101 % of control | T/C (dose: 25.0 mg/kg/injection, schedule: Q01DX005 (ip), vehicle: saline with Tween-80): 96 % of control | T/C [4]: 98 % of control

O=C1C=C(C/C=C/c2ccccc2)C(C/C=C/c2ccccc2)C=C1O (stereo not given)
T/C (dose: 0.32 mg/kg/injection, schedule: Q01DX009 (ip), vehicle: saline with Tween-80): 102 % of control | T/C (dose: 0.63 mg/kg/injection, schedule: Q01DX009 (ip), vehicle: saline with Tween-80): 107 % of control | T/C (dose: 1.25 mg/kg/injection, schedule: Q01DX009 (ip), vehicle: saline with Tween-80): 103 % of control | T/C (dose: 2.5 mg/kg/injection, schedule: Q01DX009 (ip), vehicle: saline with Tween-80): 102 % of control and 93 % of control | T/C (dose: 10.0 mg/kg/injection, schedule: Q01DX009 (ip), vehicle: saline with Tween-80): 94 % of control
